The values below are quoted from earlier work in patent publication US20180255779A1, “TRIAZOLE FORMULATIONS” (Vive Crop Protection Inc., priority 2013, published 2018).

For data set [1] the following is noted: octanol-water.
Assay in data set [2]: not given
This is another data set of the same source.

Read-outs that look alike come from different tables or passages of the source.

Turning to `CC(C1CC1)C(O)(Cn1cncn1)c1ccc(Cl)cc1` (stereo not drawn) [Cyproconazole, (2RS,3RS;2RS,3SR)-2-(4-chlorophenyl)-3-cyclopropyl-1-(1H-1,2,4-triazol-1-yl)butan-2-ol], the “Photolytic Stability, DT50” value (pH 7) is “DT 50: 40 d (aqueous photolysis at pH 7)”.

In the case of `CC1(C)CC/C(=C\c2ccc(Cl)cc2)C1(O)Cn1cncn1` (racemic) [Triticonazole, (RS)-(E)-5-(4-chlorobenzylidene)-2,2-dimethyl-1-(1H-1,2,4-triazol-1-ylmethyl)cyclopentanol], the “Photolytic Stability, DT50” value (pH 7) was “DT50: 3.1 d (aqueous photolysis at pH 7)”.

In the case of `FC(F)C(F)(F)OCC(Cn1cncn1)c1ccc(Cl)cc1Cl` (racemic) [Tetraconazole, (RS)-2-(2,4-dichlorophenyl)-3-(1H-1,2,4-triazol-1-yl)propyl 1,1,2,2-tetrafluoroethyl ether], the “Photolytic Stability, DT50” value (pH 7) was 217 days.

For `CC1COC(Cn2cncn2)(c2ccc(Oc3ccc(Cl)cc3)cc2Cl)O1` (stereo not drawn) [Difenoconazole, 3-chloro-4-[(2RS,4RS;2RS,4SR)-4-methyl-2-(1H-1,2,4-triazol-1-ylmethyl)-1,3-dioxolan-2-yl]phenyl 4-chlorophenyl ether], the “Kow, log P” value in data set [1] was “log P: 4.36”.

Regarding `CCCCC(C#N)(Cn1cncn1)c1ccc(Cl)cc1` (racemic) [Myclobutanil, (RS)-2-(4-chlorophenyl)-2-(1H-1,2,4-triazol-1-ylmethyl)hexanenitrile], the Solubility in data set [2] (heptane at 20° C.) is 1020 mg/L (heptane at 20° C.); in data set [2] (methanol and acetone, both at 20° C.) it was 250000 mg/L (methanol and acetone, both at 20° C.); in data set [2] (water at 20° C.), 132 mg/L (water at 20° C.). The “Kow, log P” value in data set [1] is on record as “log P: 2.89”. In addition, where the note is “aqueous photolysis at pH 7”, the “Photolytic Stability, DT50” value is given as “DT50: 15 d (aqueous photolysis at pH 7)”.

As to `CCCC1COC(Cn2cncn2)(c2ccc(Cl)cc2Cl)O1` (stereo not drawn) [Propiconazole, (2RS,4RS;2RS,4SR)-1-[2-(2,4-dichlorophenyl)-4-propyl-1,3-dioxolan-2-ylmethyl]-1H-1,2,4-triazole], the values for the Solubility in data set [2] (heptane at 20° C.) and in data set [2] (water at 20° C.) were 1585 mg/L (heptane at 20° C.) and 150 mg/L (water at 20° C.), respectively. In data set [1], the “Kow, log P” value is given as “log P: 3.72”.

In the case of `Fc1ccc([C@]2(Cn3cncn3)O[C@H]2c2ccccc2Cl)cc1` (racemic) [Epoxiconazole, (2RS,3SR)-1-[3-(2-chlorophenyl)-2,3-epoxy-2-(4-fluorophenyl)propyl]-1H-1,2,4-triazole], the “Photolytic Stability, DT50” value (pH 7) is on record as “DT50: 52 d (aqueous photolysis at pH 7)”.
